# Tests used:
# Format in all cases: cell-based
# [1] = tested on: corneal barrier of the microfluidic in vitro cornea device; assay: Morphological observation of the chambers after trypan blue exposure; details: trypan blue injected into TFEp channel at 3 μL/min for 4 min, incubated at 37° C. for 15 min; observed at any chamber
# [2] = tested on: corneal barrier of the microfluidic in vitro cornea device (epithelial, fibroblast, endothelial triculture); assay: FSS permeability of the in vitro cornea device after trypan blue exposure; details: trypan blue injected into TFEp channel at 3 μL/min for 4 min, incubated at 37° C. for 15 min; then FSS injected into TFEp channel
# Method: (§1) In some embodiments, all channels of the device can be coated with human fibronectin to facilitate cellular attachment. For example, primary human corneal fibroblasts can be seeded on Day 0. Fibroblasts can be harvested, concentrated to 1×10^7 cells/mL and injected into the stromal chamber via a remote head syringe pump at 5 μL/min until cells are homogenously distributed. Devices can then be incubated at 37° C., 5% CO2 for 4 hours to allow for attachment. Media can be subsequently refreshed every 24 hours. Primary human corneal epithelial cells can be seeded into the TFEp circulation channel on Day 3. […]
# (§2) Viability can be assessed on-chip as an endpoint for epithelial, fibroblast, and endothelial cells. Devices are prepared for viability quantitation by incubation with calcein AM and ethidium homodimer in PBS. After rinsing the cells with PBS, fluorescent images are taken via microscope, and the data was analyzed to determine cornea triculture viability (sec, FIG. 5A). […]
# Following exposure, FSS can be injected into the TFEp channel and permeability assayed. […] Samples can be taken from cell-laden channels (individually or combined) and placed in a low volume, white walled […] plate for luminescence analysis using a plate reader. […] The increase in AK release in arbitrary luminescence units compares the toxic exposure of trypan blue to positive and negative controls. […]
# [3] = tested on: cells of the microfluidic in vitro cornea device; assay: Cytotoxicity by adenylate kinase release (luminescence) from cell-laden channels; details: trypan blue exposure; compared with positive control (lysis buffer) and negative control (media only)
# Method: as §1, §2
# Following exposure, FSS can be injected into the TFEp channel and permeability assayed. […] Samples can be taken from cell-laden channels (individually or combined) and placed in a low volume, white walled […] plate for luminescence analysis using a plate reader. […] The increase in AK release in arbitrary luminescence units compares the toxic exposure of trypan blue to positive and negative controls.
compound,measurement,setting,value
Cc1cc(-c2ccc(/N=N/c3c(S(=O)(=O)O)cc4cc(S(=O)(=O)O)cc(N)c4c3O)c(C)c2)ccc1/N=N/c1c(S(=O)(=O)O)cc2cc(S(=O)(=O)O)cc(N)c2c1O [trypan blue],Morphological effects of exposure,[1],"evidence of barrier degradation (e.g., cell death and detachment) and apoptosis"
same,Permeability in trypan blue treated devices compared to controls,[2],10 fold
same,Increase in adenylate kinase release,[3],1.5 fold

# Reference: patent US20240203290A1, “VITRO MODEL DEVICE FOR CORNEA BARRIER” (CFD Research Corporation, priority 2022, published 2024)
